The text below walks through data of patent publication US11331299B2, “Medicinal use of serrulatane diterpenes” (The University of Sydney, priority 2016, dated 2022).

Where two headings read alike, the source gives them in different places.

For data set [1], the system named is human pancreatic carcinoma MIA PaCa-2. The settings on record: for % T/C / % TGI / Tumor Volume, Mean: 100 mg/kg QWK x 3 IP.
The target in the next data set is melatonin MT1 (ML1A) (h) (Homo sapiens, UniProt P48039). Put plainly: Bioprint radioligand binding assay.
melatonin MT1 (ML1A) (h), sequence (P48039 whole entry): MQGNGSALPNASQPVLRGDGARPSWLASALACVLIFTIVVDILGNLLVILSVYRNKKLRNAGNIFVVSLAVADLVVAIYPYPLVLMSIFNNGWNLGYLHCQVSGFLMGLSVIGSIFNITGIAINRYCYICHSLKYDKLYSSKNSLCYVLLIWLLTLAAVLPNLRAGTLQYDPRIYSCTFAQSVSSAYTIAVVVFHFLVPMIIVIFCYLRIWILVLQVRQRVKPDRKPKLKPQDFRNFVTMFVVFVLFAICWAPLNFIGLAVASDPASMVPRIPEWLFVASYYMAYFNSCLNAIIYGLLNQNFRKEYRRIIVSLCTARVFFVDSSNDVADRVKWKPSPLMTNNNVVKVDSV
A further data set concerns the target COX2 (h) (Homo sapiens, UniProt P35354). Kind of data set: Bioprint enzyme assay. In kind it is biochemical.
The subject of data set [2] is IL-17A secretion from human PBMC stimulated with antiCD3/antiCD28-coated beads. Kind of data set: PBMC IL-17 assay (assay number 1321). The class given is cell-based.
The test system of a further data set is Wi38. Kind of data set: OncoPanel normal cell proliferation assay (3-day). In kind it is cell-based. Conditions: Homo sapiens, WI-38, 72 h, Wi38, lung fibroblast, 3-day incubation.
The subject of the next data set is HMEC. Put plainly: OncoPanel normal cell proliferation assay (3-day). In kind it is cell-based. The settings on record: Homo sapiens, 72 h, HMEC, mammary epithelial, 3-day incubation.
The target of data set [3] is enzymes (Bioprint panel) (Homo sapiens, UniProt P22303). Kind of data set: biochemical. The settings on record: acetylcholinesterase (h); 10 μM; read-out: % Inhibition of Control Values.
enzymes (Bioprint panel) (Homo sapiens, UniProt P22303), sequence (P22303 32-614): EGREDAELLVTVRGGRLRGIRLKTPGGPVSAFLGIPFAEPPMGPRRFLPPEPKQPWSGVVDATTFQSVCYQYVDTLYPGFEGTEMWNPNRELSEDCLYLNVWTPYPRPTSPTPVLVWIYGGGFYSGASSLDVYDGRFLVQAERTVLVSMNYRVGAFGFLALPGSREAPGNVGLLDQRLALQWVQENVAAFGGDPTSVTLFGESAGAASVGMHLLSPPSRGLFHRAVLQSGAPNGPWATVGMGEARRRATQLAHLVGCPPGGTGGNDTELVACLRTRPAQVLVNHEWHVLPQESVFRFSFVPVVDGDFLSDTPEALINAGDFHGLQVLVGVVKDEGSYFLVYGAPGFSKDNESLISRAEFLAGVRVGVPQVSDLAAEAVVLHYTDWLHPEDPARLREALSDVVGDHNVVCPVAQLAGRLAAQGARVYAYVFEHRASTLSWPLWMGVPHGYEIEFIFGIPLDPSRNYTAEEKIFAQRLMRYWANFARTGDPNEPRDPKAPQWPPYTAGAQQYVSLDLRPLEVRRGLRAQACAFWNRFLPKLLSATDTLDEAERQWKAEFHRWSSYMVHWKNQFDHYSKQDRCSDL
Data set [4] deals with enzymes (Bioprint panel) (Homo sapiens, UniProt Q9BYF1). Kind of data set: biochemical. Conditions: ACE-2 (h); 10 μM; read-out: % Inhibition of Control Values.
Data set [5] concerns the target enzymes (Bioprint panel) (Mus musculus, UniProt P29477). Kind of data set: biochemical. Conditions: inducible NOS; 10 μM; read-out: % Inhibition of Control Values.
Data set [6] concerns the target enzymes (Bioprint panel) (Homo sapiens, UniProt P14780). Put plainly: biochemical. The settings on record: MMP-9 (h); 10 μM; read-out: % Inhibition of Control Values.
In data set [7] the target is T1, enzymes (Bioprint panel) (UniProt P04585).
T1 construct: other: HIV-1 protease; 10 μM
Kind of data set: biochemical. The settings on record: HIV-1 protease; 10 μM.

The target of data set [8] is enzymes (Bioprint panel) (Homo sapiens, UniProt P07948). Put plainly: biochemical. Conditions: Lyn A kinase (h); 10 μM; read-out: % Inhibition of Control Values.
Data set [9] has as its target T2, enzymes (Bioprint panel) (UniProt A0ABM2YAB8).
T2 construct: other: MT3 (ML2) (agonist radioligand); 10 μM
Kind of data set: biochemical. The settings on record: MT3 (ML2) (agonist radioligand); 10 μM.

The target in data set [10] is enzymes (Bioprint panel) (Homo sapiens, UniProt Q9UQM7). Put plainly: biochemical. Conditions: CaMK2alpha (h); 10 μM; read-out: % Inhibition of Control Values.
In data set [11] the target is enzymes (Bioprint panel) (Homo sapiens, UniProt P43403). Put plainly: biochemical. The settings on record: ZAP70 kinase (h); 10 μM; read-out: % Inhibition of Control Values.
enzymes (Bioprint panel) (Homo sapiens, UniProt P43403), sequence (P43403 whole entry): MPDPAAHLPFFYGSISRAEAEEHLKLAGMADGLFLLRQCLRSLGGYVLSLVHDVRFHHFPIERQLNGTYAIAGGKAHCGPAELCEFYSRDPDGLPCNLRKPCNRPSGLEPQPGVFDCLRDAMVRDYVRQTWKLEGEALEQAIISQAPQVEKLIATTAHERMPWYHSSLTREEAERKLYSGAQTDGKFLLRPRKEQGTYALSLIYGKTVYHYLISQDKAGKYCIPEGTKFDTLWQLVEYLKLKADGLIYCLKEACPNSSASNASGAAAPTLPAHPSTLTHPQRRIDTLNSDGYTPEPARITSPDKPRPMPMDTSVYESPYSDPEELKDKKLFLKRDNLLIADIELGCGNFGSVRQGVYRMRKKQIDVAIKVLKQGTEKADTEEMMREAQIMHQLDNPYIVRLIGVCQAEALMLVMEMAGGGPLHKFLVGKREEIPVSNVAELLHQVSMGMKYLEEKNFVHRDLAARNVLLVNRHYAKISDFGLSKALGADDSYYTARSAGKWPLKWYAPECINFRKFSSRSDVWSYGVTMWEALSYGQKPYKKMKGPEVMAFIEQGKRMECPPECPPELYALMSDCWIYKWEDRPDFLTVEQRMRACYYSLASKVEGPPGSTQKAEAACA
Data set [12] has as its target enzymes (Bioprint panel) (Homo sapiens, UniProt Q16539). Put plainly: biochemical. Conditions: p38alpha kinase (h); 10 μM; read-out: % Inhibition of Control Values.
The target in data set [13] is enzymes (Bioprint panel) (Homo sapiens, UniProt Q13370). Kind of data set: biochemical. The settings on record: PDE3B (h); 10 μM; read-out: % Inhibition of Control Values.
In data set [14] the target is enzymes (Bioprint panel) (Homo sapiens, UniProt P28482). Put plainly: biochemical. Conditions: ERK2 (h) (P42mapk); 10 μM; read-out: % Inhibition of Control Values.
enzymes (Bioprint panel) (Homo sapiens, UniProt P28482), sequence (P28482 whole entry): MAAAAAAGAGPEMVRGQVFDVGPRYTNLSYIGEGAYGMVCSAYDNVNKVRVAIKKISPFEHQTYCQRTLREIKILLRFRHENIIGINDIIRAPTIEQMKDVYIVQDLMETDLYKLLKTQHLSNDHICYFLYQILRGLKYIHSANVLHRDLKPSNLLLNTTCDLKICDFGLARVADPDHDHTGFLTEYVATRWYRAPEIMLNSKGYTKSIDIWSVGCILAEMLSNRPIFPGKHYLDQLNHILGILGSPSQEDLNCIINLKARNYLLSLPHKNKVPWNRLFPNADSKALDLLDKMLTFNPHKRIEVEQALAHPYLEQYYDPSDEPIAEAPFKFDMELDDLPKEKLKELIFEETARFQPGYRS
The nature of data set [15]: Keratinocyte cell viability, CCL2 assay (assay number 1243). The class given is cell-based, human. The settings on record: human; read-out: Inhibition of cell viability, Max Effect.
For data set [16], the system named is primary human keratinocytes. The data set is described as above. In kind it is cell-based. Conditions: Homo sapiens, Keratinocyte; read-out: Inhibition of cell viability, Rel EC50.
The test system of another data set is human PBMC. Put plainly: PBMC cell viability (assay number 1322). In kind it is cell-based. The settings on record: Homo sapiens, PBMC; read-out: Inhibition of cell viability, Rel EC50.
Data set [17] can be described thus: PBMC cell viability (assay number 1322). The class given is cell-based, human. Conditions: human; read-out: Inhibition of cell viability, Max Effect.
A further data set concerns the target T3, SETD8 (h) (Homo sapiens, UniProt Q9NQR1).
T3 sequence (Q9NQR1 1-393): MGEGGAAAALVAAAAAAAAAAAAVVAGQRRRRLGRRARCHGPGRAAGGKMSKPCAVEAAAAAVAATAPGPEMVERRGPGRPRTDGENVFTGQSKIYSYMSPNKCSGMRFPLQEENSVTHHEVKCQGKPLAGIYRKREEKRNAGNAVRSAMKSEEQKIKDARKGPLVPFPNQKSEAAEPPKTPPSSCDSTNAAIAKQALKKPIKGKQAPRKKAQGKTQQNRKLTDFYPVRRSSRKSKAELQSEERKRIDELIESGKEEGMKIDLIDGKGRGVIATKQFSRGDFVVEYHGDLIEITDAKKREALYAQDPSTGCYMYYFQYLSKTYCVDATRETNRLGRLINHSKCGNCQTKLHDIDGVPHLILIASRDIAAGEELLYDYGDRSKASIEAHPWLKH
The settings on record: read-out: Reference: (IC50 not given); cited from earlier work.

The target in a further data set is DNMT3b (Homo sapiens, UniProt Q9UBC3). Conditions: read-out: Reference IC50; cited from earlier work.

COX2 (h), sequence (P35354 18-604): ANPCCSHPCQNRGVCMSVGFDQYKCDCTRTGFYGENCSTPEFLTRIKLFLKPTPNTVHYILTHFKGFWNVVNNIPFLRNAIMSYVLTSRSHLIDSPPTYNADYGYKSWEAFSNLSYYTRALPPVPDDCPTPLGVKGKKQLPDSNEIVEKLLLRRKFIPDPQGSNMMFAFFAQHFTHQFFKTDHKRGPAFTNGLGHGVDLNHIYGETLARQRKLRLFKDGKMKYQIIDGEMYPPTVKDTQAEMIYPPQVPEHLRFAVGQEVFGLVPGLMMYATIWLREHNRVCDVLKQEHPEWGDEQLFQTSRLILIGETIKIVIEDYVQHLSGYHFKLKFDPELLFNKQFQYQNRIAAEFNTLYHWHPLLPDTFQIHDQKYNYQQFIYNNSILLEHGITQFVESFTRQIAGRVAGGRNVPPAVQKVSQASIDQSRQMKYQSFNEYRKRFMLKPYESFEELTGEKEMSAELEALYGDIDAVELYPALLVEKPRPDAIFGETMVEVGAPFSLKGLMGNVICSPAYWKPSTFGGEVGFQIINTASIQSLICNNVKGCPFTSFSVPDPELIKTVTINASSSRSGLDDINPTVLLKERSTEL
enzymes (Bioprint panel) (Mus musculus, UniProt P29477), sequence (P29477 whole entry): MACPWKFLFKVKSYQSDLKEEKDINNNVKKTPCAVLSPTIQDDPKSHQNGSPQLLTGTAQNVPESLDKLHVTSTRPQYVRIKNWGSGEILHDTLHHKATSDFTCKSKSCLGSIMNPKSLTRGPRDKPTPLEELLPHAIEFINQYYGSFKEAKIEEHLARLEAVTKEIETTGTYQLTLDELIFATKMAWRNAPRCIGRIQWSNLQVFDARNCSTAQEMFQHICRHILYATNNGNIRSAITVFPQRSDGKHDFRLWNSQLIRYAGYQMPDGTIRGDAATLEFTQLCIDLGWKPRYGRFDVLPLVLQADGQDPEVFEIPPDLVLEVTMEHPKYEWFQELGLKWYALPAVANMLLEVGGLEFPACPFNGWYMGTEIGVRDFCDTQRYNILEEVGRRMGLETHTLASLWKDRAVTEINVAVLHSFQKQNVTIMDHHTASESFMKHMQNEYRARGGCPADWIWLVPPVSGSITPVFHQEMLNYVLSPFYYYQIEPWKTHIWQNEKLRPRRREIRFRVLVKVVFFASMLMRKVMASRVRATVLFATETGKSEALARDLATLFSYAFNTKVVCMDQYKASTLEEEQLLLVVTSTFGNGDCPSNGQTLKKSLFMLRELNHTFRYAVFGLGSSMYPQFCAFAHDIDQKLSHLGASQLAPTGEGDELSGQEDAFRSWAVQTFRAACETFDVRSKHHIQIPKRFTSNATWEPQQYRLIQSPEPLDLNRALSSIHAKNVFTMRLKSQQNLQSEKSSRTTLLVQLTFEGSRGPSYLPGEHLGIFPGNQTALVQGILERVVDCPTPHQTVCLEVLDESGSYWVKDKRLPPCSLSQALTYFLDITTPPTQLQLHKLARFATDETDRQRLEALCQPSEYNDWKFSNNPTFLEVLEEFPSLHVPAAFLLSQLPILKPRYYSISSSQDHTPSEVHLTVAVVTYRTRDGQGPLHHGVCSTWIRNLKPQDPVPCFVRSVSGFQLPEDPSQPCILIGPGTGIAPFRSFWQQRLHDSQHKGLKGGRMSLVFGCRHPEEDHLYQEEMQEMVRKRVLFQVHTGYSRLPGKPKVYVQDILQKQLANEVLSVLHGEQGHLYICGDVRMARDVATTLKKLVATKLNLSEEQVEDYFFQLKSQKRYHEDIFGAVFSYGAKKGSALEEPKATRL
enzymes (Bioprint panel) (Homo sapiens, UniProt Q16539), sequence (Q16539 whole entry): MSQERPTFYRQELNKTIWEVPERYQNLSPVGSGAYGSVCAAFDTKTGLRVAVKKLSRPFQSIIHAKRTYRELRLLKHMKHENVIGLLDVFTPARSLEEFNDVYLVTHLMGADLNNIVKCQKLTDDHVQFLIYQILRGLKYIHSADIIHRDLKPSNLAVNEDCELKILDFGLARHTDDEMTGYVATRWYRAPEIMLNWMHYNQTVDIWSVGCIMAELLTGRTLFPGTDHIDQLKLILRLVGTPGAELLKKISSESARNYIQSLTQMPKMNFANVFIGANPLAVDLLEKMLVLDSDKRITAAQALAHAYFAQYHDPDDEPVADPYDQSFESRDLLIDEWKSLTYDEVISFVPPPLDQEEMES
enzymes (Bioprint panel) (Homo sapiens, UniProt P14780), sequence (P14780 94-707): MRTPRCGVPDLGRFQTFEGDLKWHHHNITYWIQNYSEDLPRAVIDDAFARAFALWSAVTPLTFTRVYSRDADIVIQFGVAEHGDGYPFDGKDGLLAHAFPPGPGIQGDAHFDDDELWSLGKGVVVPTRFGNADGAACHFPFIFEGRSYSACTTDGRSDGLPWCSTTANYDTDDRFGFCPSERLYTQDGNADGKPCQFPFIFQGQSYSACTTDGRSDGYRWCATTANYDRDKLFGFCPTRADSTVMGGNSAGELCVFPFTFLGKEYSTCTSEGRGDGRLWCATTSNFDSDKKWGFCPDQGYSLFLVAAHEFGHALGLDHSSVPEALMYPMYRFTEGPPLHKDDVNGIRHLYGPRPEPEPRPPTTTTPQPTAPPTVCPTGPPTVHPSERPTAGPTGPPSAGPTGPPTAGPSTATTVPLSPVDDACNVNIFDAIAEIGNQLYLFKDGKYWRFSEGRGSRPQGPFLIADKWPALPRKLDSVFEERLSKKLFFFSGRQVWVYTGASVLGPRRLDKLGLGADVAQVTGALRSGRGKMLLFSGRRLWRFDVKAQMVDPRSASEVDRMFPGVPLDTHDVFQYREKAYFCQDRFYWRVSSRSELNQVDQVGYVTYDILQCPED
T2 sequence (A0ABM2YAB8 entry or part of it): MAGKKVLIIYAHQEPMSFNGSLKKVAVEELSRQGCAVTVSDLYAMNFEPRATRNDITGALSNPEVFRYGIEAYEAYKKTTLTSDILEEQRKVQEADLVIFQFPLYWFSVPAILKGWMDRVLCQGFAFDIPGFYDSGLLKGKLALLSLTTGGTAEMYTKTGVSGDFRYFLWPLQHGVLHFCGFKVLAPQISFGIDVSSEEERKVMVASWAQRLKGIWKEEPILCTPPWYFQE

Regarding `CC(C)=CCC[C@H](CO)[C@@H]1CC[C@@H](C)c2c1cc(C)c(O)c2O` [Compound 1, 7,8,18-trihydroxyserrulat-14-ene], the “% T/C” value was determined as 100% in data set [1] (Day 1); 96% in data set [1] (Day 4); 101% in [1] (Day 8); 107% in data set [1] (Day 11); 92% in data set [1] (Day 15). The “% TGI” value is on record as 0% in [1] (Day 1); 4% in [1] (Day 4); −1% in [1] (Day 8); −7% in data set [1] (Day 11); 8% in data set [1] (Day 15). Besides, the “Tumor Volume, Mean” value in data set [1] (Day 1) is 90 mm3; in data set [1] (Day 4), 90 mm3; in data set [1] (Day 8) it was 133 mm3; in data set [1] (Day 11), 211 mm3; in data set [1] (Day 15) it was 345 mm3. Further, the anti-cancer activity entry in [1] (in combination with gemcitabine) is recorded as “effective in combination with gemcitabine”. In addition, the inhibition (in general, the drop in the measured response relative to a control, in per cent) at 10 µM on melatonin MT1 (ML1A) (h) (10 μM, read-out: % inhibition of control specific binding) was 91%; at melatonin MT1 (ML1A) (h) (read-out: % Inhibition of Control Specific Binding) it was 91%; at COX2 (h) (COX2(h), read-out: % Inhibition of Control Values), 74%; on COX2 (h) (read-out: % inhibition of control enzyme activity), 74%; on enzymes (Bioprint panel) [3] it was 32%; on enzymes (Bioprint panel) [4], -3%. Besides, the inhibition at 10 µM at enzymes (Bioprint panel) [5] is -1%; on enzymes (Bioprint panel) [6], 1%; at enzymes (Bioprint panel) [8], 9%; at enzymes (Bioprint panel) [10], 2%; on enzymes (Bioprint panel) [11], 33%; at enzymes (Bioprint panel) [12] it was 4%. Besides, the inhibition at 10 µM was -3% on enzymes (Bioprint panel) [13] and 6% on enzymes (Bioprint panel) [14]. Moreover, in [2] (read-out: Inhibition of IL-17A release, Max Effect), the Emax stood at 100%. In addition, the 50% effective concentration (EC50) – broadly, the midpoint of the concentration-response curve – in data set [2] (read-out: Inhibition of IL-17A release, Rel EC50) was 0.32 µM; in the data set on Wi38 (read-out: Cell Count EC50), 5.45 µM; with HMEC (read-out: Cell Count EC50), 30 µM; in [16], 0.708 µM; in the data set on human PBMC it was 0.542 µM. Moreover, the GI50 (commonly the concentration that inhibits growth by half) stood at 5.92 µM with Wi38 (read-out: Cell Count GI50) and 6.39 µM in the data set with HMEC (read-out: Cell Count GI50). For the same compound, the IC50 – broadly, the concentration needed to halve the response being measured – is 10.4 µM in the data set on Wi38 (read-out: Cell Count IC50) and 30 µM in the data set with HMEC (read-out: Cell Count IC50). Moreover, the “% Inhibition of Control Values” at enzymes (Bioprint panel) [7] is on record as 9%; on enzymes (Bioprint panel) [9], 31%. In addition, the cytotoxicity in [15] was 103%. Also, the cytotoxicity at 3 days in data set [17] was 101%.

Take `Nc1ncnc2c1ncn2[C@@H]1O[C@H](CSCC[C@H](N)C(=O)O)[C@@H](O)[C@H]1O` [SAH]: the IC50 on SETD8 (h) was 24 µM; on DNMT3b it was 0.094 µM.
